From paper PMC7730438, “Generation of KS-58 as the first K-Ras(G12D)-inhibitory peptide presenting anti-cancer activity in vivo” (Scientific Reports, 2020)
“And” between values parts separate entries of the source, which are not always exact repeats. Identical values can stand only once. Starred links: 1 amine or outer side, 2 acyl side, 3 side chain; linkers in the order of their positions; H or OH if unused. Positions of bridges follow the written chain, without caps; N, C: chain ends. Non-standard residues stand in square brackets, D forms with d. Residues, ends and D or L forms follow the SMILES beside them. Phe(4-F) = N[C@@H](Cc1ccc(F)cc1)C(=O)O; X1 = CCCCCCC[C@H](N[*:1])C(=O)[*:2]; Nle = CCCC[C@H](N)C(=O)O; X2 = C(C[*:1])C[*:2]; βAla = NCCC(=O)O

Experiments:
A427 cells = test: Cell proliferation assay (CellTiter-Glo, 72 h); assay type: cell-based, human; settings: A427 (G12D), peptide 30 µM, n = 4, ± SEM
Experimental: (§1) A427 (ATCC HTB-53), A549 (ATCC CCL-185), H1975 (ATCC CRL-5908), PANC-1 (ATCC CRL-1469), MIA PaCa-2 (ATCC CRL-1420), and Capan-1 (ATCC HTB-79) cells were purchased from ATCC, and each cell was cultured in medium supplemented with 10% fetal bovine serum (FBS), according to the protocol recommended by the manufacture.
(§2) The effect of peptides on cell proliferation of A427, A549, H1975, PANC-1, MIA PaCa-2, and Capan-1 cells was determined by 72 h exposure to peptides. Cells were seeded at 1000 cells/well in 96-well tissue culture plates in each growth media and allowed to adhere overnight on day 0. Peptides were solved in DMSO and then diluted with each growth media for a constant final DMSO concentration of 0.5%. Media in the wells were removed and replaced with diluted peptide solutions, and cells were incubated for 3 days. During the incubation, medium containing the peptides was replaced every day. Relative cell numbers were estimated using CellTiter-Glo assay kit (G7570, Promega, WI, USA) according to the manufacturer’s instructions. Luminescence was detected using SpectraMax i3x (MOLECULAR DEVICES, CA, USA). Cell proliferation rate (%) was calculated based on cell numbers at day 0 as 0% and at day 3 without peptide treatment as 100%.

A549 cells = test: Cell proliferation assay (CellTiter-Glo, 72 h); assay type: cell-based, human; settings: A549 (G12S), peptide 30 µM, n = 4, ± SEM
Experimental: as §1, §2

PANC-1 cells = test: Cell proliferation assay (CellTiter-Glo, 72 h); assay type: cell-based, human; settings: PANC-1 (G12D), peptide 30 µM, n = 4, ± SEM
Experimental: as §1, §2

H1975 cells = test: Cell proliferation assay (CellTiter-Glo, 72 h); assay type: cell-based, human; settings: H1975 (WT), peptide 30 µM, n = 4, ± SEM
Experimental: as §1, §2

Capan-1 cells = test: Cell proliferation assay (CellTiter-Glo, 72 h); assay type: cell-based, human; settings: Capan-1 (G12V), peptide 30 µM, n = 4, ± SEM
Experimental: as §1, §2

MIA PaCa-2 cells = test: Cell proliferation assay (CellTiter-Glo, 72 h); assay type: cell-based, human; settings: MIA PaCa-2 (G12C), peptide 30 µM, n = 4, ± SEM
Experimental: as §1, §2

[1] = test system: PANC-1 orthotopic xenografts; test: Anti-cancer efficacy in PANC-1 orthotopic xenografts; assay type: in vivo, mice; settings: 40 mg/kg iv once every 2 days for 4 weeks
Experimental: To establish orthotropic xenograft tumor models, 2.5 × 10^6 cells/50 µL of PANC-1 cells were injected into the pancreas of BALB/cAJcl-nu/nu male mice (8 weeks old; CLEA Japan, Inc.). KS-58 was dissolved in DMSO and then tenfold diluted by saline. The peptide solution was then injected intravenously to the mice bearing tumors once every 2 days for 4 weeks (40 mg/kg, n = 7). Organ weights of the pancreas, liver, and kidney were measured.

CCCCCCC[C@@H]1NC(=O)[C@@H]2CSCCCSC[C@@H](NC(=O)[C@H](Cc3c[nH]c4ccccc34)NC(=O)[C@@H]3CCCN3C(=O)[C@H](CC(=O)O)NC(=O)[C@H](Cc3ccc(F)cc3)NC(=O)[C@H](CO)NC1=O)C(=O)NCCC(=O)N1CCC[C@H]1C(=O)N[C@@H](CCCC)C(=O)N2 [KS-58, c[βAla-Pro-Nle-c(Cys-Anon-Ser-4fF-Asp-Pro-Trp-^DCys)]] (cyclo([βAla]P[Nle]C[X1]S[Phe(4-F)]DPW[dC]); linker 4-11 via X2)
Cell proliferation (%) (A427 cells): 21.1% and 21.1 ± 5.5%
Cell proliferation (%) (A549 cells): 81.3 ± 1.5%
Cell proliferation (%) (PANC-1 cells): 50.1% and 50.1 ± 4.1%
Cell proliferation (%) (H1975 cells): 92.7 ± 0.3%
Cell proliferation (%) (Capan-1 cells): 94.9 ± 2.2%
Cell proliferation (%) (MIA PaCa-2 cells): 86.8 ± 2.3%
Adverse side effects (loss of body weight, organ swelling of liver and kidney) ([1]; both xenografts): without any adverse side effects
cell growth of PANC-1 (pancreas weight; Sham = 0%, vehicle = 100%) ([1]; orthotopic xenograft): 65%
